Results: publication PMC6365497, “2-aminoimidazoles collapse mycobacterial proton motive force and block the electron transport chain” (Scientific Reports, 2019)
Converted amounts (≈) assume the structure as drawn. Like-named read-outs stand apart in the source and are kept apart here.

How the values were obtained:
[1] = system: M. tuberculosis; parameters: method as in PMID 28749949; conditions: cited from earlier work
[2] = system: M. tuberculosis; assay: microbe, parasite or virus in culture; assay type: cell-based, Mycobacterium tuberculosis
[3] = system: M. tuberculosis; assay: β-lactam potentiation assay; assay type: cell-based, Mycobacterium tuberculosis
[4] = system: M. smegmatis; assay: Determination of Δψ collapse by DisC3(5); assay type: cell-based
[5] = system: M. tuberculosis mc^2 6206; assay type: cell-based, Mycobacterium tuberculosis
[6] = system: M. tuberculosis H37Rv mc^2 6206; assay type: cell-based, Mycobacterium tuberculosis
[7] = system: M. smegmatis IMVs; assay: NADH oxidation by IMVs; assay type: biochemical
[8] = system: M. smegmatis IMVs; assay: ETC activity assay with IMVs (INT reduction); assay type: biochemical
[9] = system: M. tuberculosis; assay: Kinetic measurement of alamarBlue reduction; assay type: cell-based, Mycobacterium tuberculosis
[10] = system: M. smegmatis; assay: MIC against M. smegmatis; assay type: cell-based
[11] = system: M. tuberculosis; assay: Quantification of intracellular ATP
[12] = system: M. smegmatis; assay: Kinetic measurement of alamarBlue reduction
[13] = system: M. smegmatis IMVs; assay: Determination of ΔpH collapse with IMVs (ACMA)
[14] = system: M. smegmatis IMVs; assay type: biochemical

Compound	Fold potentiation of Carbenicillin [3]	Fold potentiation of Meropenem [3]	β-lactam potentiation (summary) [3]	Δψ collapse (summary) [4]	Effect on oxygen consumption rate (OCR) [5]	O2 consumption rate (summary) [5]	NADH/NAD+ ratio (summary) [6]	NADH/NAD^+ ratio [6]	Effect on NADH oxidation (fluorescence decay 340ex/460em) [7]	NADH oxidation (summary) [7]	ETC activity (INT reduction at 490 nm) [8]	ETC activity (summary) [8]	alamarBlue reduction [9]	alamarBlue reduction (summary) [9]	[ATP]i (summary) [11]	alamarBlue reduction [12]	ΔpH collapse (summary) [13]	other results
C[C@@H](O)[C@H]1C(=O)N2C(C(=O)O)=C(S[C@@H]3CN[C@H](C(=O)N(C)C)C3)[C@H](C)[C@H]12 [Meropenem]	–	–	–	–	–	–	–	–	–	–	–	–	–	–	–	–	–	MIC (MIC95) [1]: 8 µg/mL (≈ 20.9 µM)
CCCCCCCCCCCCCNC(=O)CCCc1cnc(N)[nH]1 [RA13]	1.5x	2x	M a r g in a l ↑	N o effect	minimal changes in OCR	Weak ↑	N o effect	inactive	did not have any effect	N o effect	only affected INT reduction in the presence of both substrates	Weak ↓	did not have an effect	N o effect	N o effect	did not have an effect	Weak	MIC [2]: > 1000 µM; Effect on Δψ (membrane potential), DiSC3(5) fluorescence reversal [4]: no effect; MIC [10]: > 1000 µM
CSc1ccc2c(c1)N(CCC1CCCCN1C)c1ccccc1S2 (stereo not drawn) [TRZ, thioridazine, reference compound]	16x	32x	–	–	significantly increased M. tuberculosis OCR	–	S t r o ng ↑	increased	significantly slowed down	–	none and potent and intermediate	–	–	–	–	–	–	MIC ([2]; Mycobacterium tuberculosis, read-out: MIC (MIC95)): 62.5 µM (≈ 23.2 µg/mL); β-lactam potentiation (summary) ([3]; Table S2 summary): Intermediate ↑; Δψ collapse (summary) ([4]; Table S2 summary): Intermediate; NADH oxidation (summary) ([7]; Table S2 summary): S t r o ng ↓; Restoration of inhibited NADH oxidation by CFZ [14]: not altered by CFZ; Rescue by CFZ (summary) ([14]; Table S2 summary): No; ETC activity (summary) ([8]; Table S2 summary): S t r o ng ↓; alamarBlue reduction (summary) ([9]; Table S2 summary, mycobacteria): S t r o ng ↓; [ATP]i (summary) ([11]; Table S2 summary): S t r o ng ↓; ΔpH collapse (summary) ([13]; Table S2 summary): S t r o ng
carbonyl cyanide m-chlorophenyl hydrazine [CCCP, reference compound]	9.6x	16x	Intermediate ↑	S t r o ng	bell-shaped, dose-response effect	↑ t he n ↓	N o effect	did not increase	tendency to accelerate NADH oxidation	Weak ↑	tendency to increase ETC activity	Weak ↑	inhibited	Weak ↓	Intermediate ↓	inhibited	Intermediate	MIC ([2]; read-out: MIC (MIC95)): 20 µM; Rescue by CFZ (summary) [14]: N o effect
